These results are taken from US10618887B2 (Sunesis Pharmaceuticals, Inc., priority 2012, dated 2020).

One data set has as its target T1, BTK (Homo sapiens, UniProt Q06187).
T1 construct: purchased Upstate 14-552
As to the kind of experiment: In vitro BTK kinase assay: BTK-POLYGAT-LS assay. In kind it is biochemical. The following applies: ATP 10 uM, polyGAT 100 nM, BTK 0.25 nM, 30 minutes; read-out: IC50 against BTK (polyGAT assay). The protocol: In vitro BTK kinase assay: BTK-POLYGAT-LS ASSAY. The purpose of the BTK in vitro assay was to determine compound potency against BTK through the measurement of IC50. Compound inhibition was measured after monitoring the amount of phosphorylation of a fluorescein-labeled polyGAT peptide (Invitrogen PV3611) in the presence of active BTK enzyme (Upstate 14-552), ATP, and inhibitor. The BTK kinase reaction was done in a black 96 well plate (costar 3694). For a typical assay, a 24 uL aliquot of an ATP/peptide master mix (final concentration; ATP 10 uM, polyGAT 100 nM) in kinase buffer (10 mM Tris-HCl pH 7.5, 10 mM MgCl2, 200 uM […], 5 mM DTT, 0.01% Triton X-100, and 0.2 mg/ml casein) was added to each well. Next, 1 uL of a 4-fold, 40× compound titration in 100% DMSO solvent was added, followed by adding 15 uL of BTK enzyme mix in 1× kinase buffer (with a final concentration of 0.25 nM). The assay was incubated for 30 minutes before being stopped with 28 uL of a 50 mM EDTA solution. Aliquots (5 uL) of the kinase reaction were transferred to a low volume white 384 well plate (Corning 3674), and 5 uL of a 2× detection buffer (Invitrogen PV3574, with 4 nM Tb-PY20 antibody, Invitrogen PV3552) was added. The plate was covered and incubated for 45 minutes at room temperature. Time resolved fluorescence (TRF) on Molecular Devices M5 (332 nm excitation; 488 nm emission; 518 nm fluorescein emission) was measured. IC50 values were calculated using a four parameter fit with 100% enzyme activity determined from the DMSO control and 0% activity from the EDTA control.

In data set [1] the target is T2, hERG (human ether-à-go-go-related gene) potassium channel (Homo sapiens, UniProt Q12809).
T2 construct: host or cells: HEK293
As to the kind of experiment: FastPatch hERG inhibition assay (QPatch HT, HEK293 cells stably transfected with hERG cDNA). In kind it is cell-based. The following applies: for IC50: HEK293 cells, automated patch clamp, IC50 estimated from hERG inhibition data. An excerpt: (§1) Protocol for FastPatch hERG Inhibition Assay:
(§2) The cardiac potassium channel, hERG, is responsible for a rapid delayed rectifier current (IKr) in human ventricle and inhibition of IKr is the most common cause of cardiac action potential prolongation by non-cardiac drugs (see, e.g., Weirich and Antoni, Basic Res. Cardiol., 93, Suppl. 1, 125-32, 1998; Yap and Camm, Clin. Exp. Allergy, 29, Suppl. 3, 174-81, 1999). Increased action potential duration has been cited as a factor in causing prolongation of the QT interval that has been associated with a dangerous ventricular arrhythmia, torsade de pointes (Brown and Rampe, Pharmaceutical News, 7, 15-20, 2000).
(§3) The in vitro effects of provided compounds was investigated on the hERG (human ether-à-go-go-related gene) potassium channel current (a surrogate for IKr, the rapidly activating, delayed rectifier cardiac potassium current) expressed in human embryonic kidney (HEK293) cells stably transfected with hERG cDNA. Cells were placed in HEPES-buffered physiological saline solution in a glass-lined 96-well plate and loaded with appropriate amounts of test and control solutions for a duration of a 3-minute exposure at each concentration. Test compound was diluted in 0.3% DMSO. An automated parallel patch clamp system, QPatch HT (Sophion Bioscience A/S, Denmark), was used to evaluate at various concentrations (e.g., 10 μM). The IC50 values was estimated based on the hERG inhibition data. The study was performed at ChanTest (14656 Neo Parkway, Cleveland, Ohio). The QPatch screen is further described by Janzen and Bernasconi (eds.), High Throughput Screening, Methods and Protocols, Second Edition, vol. 565, chapter 10, pg. 209-223, 2009.

The target of another data set is T3, human PXR (Homo sapiens, UniProt O75469).
T3 construct: expressed in transfected cells; host or cells: DPX2 tumor cell line
T3 sequence (O75469 1-434): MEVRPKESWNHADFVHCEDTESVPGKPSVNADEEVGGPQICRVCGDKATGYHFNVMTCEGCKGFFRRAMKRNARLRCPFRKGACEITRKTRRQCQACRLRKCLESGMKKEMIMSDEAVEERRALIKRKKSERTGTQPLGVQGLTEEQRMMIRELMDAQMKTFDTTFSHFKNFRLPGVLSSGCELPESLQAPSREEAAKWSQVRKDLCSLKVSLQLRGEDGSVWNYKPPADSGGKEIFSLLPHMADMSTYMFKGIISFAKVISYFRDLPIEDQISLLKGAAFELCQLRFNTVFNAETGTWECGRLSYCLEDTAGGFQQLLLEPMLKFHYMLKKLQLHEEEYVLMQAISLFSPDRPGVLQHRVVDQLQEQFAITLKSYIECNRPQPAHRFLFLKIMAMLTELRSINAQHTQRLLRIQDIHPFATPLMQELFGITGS
Description: PXR nuclear receptor activation reporter gene assay in human DPX2 cells. The conditions noted are these: 24 hr treatment. The format is cell-based. An excerpt:
Study Protocol to Determine Activation of the PXR Nuclear Receptor in Human DPX2 Cells
Based on this pathway of CYP3A4 induction, cell-based PXR reporter gene assay is commonly used to screen new molecular entities (NMEs) in early drug discovery stage, for their potential to induce CYP3A4 (Luo G, et al.; Drug Metab Dispos. 2002 July; 30(7):795-804.) Studies were designed to evaluate the effect of new molecular entities (NMEs) on the activation of human PXR in DPX2 cells. Cell lines stably transfected with the PXR nuclear receptor and corresponding response elements were seeded into 96-well plates. Twenty-four hr after seeding, cells were treated with 6 distinct concentrations of NMEs in triplicate wells (see below), and cells then returned to the incubator for an additional 24 hr. At the end of this incubation period, the number of viable cells/well were determined using Promega's Cell Titer Fluor cytotoxicity assay. Following this assay, Promega's ONE-Glo was added to the same wells and reporter gene activity assessed.
The test system consisted of the stably transformed DPX2 tumor cell line plated on 96-well microtiter plates. An expression vector harboring the PXR nuclear receptor plus the appropriate enhancers and promoters linked to the luciferase reporter gene have been stably integrated into these tumor cell lines. Receptor activation was assessed by monitoring reporter gene activity, and by comparing the results to vehicle-treated cells. Positive controls consist of cells treated with 6 different concentrations (0.1, 0.5, 1, 5, 10, and 20 μM) of rifampicin. In this manner, compounds activating PXR can be easily and rapidly identified. Since stably-integrated cell lines were used, it is possible to observe from 3- to 70-fold receptor activation.
Data processed using MS-Excel was calculated as the mean (n=3) and % CV of the fold PXR activation relative to vehicle-treated cells at each of the 6 different doses. All activation data was normalized to the number of viable cells/well. Results were also expressed as a percentage of the response given by the appropriate positive control at a 10 μM dose. EC50 and Emax values were derived for test compounds that give receptor activation using nonlinear regression of typical log dose-response curves (Prism V5.0c, GraphPad Software, San Diego, Calif.).
d) New Molecular Entities (NMEs): Test Compounds were Tested at 0.05, 0.1, 0.5, 1, 2.5, and 10 μM
For orientation: A reporter such as luciferase makes a cellular process visible.

A further data set concerns the target T4, hERG potassium channel (Homo sapiens, UniProt Q12809).
T4 construct: host or cells: HEK293
Description: FastPatch hERG inhibition assay (QPatch HT, HEK293 cells stably transfected with hERG cDNA). In kind it is cell-based. The following applies: human, HEK293 cells stably transfected with hERG cDNA; 10 uM, HEK293 cells, automated patch clamp.
Text: as §1, §2, §3
For orientation: hERG is a cardiac potassium channel; its block is linked to QT prolongation.

T2 sequence (Q12809 whole entry): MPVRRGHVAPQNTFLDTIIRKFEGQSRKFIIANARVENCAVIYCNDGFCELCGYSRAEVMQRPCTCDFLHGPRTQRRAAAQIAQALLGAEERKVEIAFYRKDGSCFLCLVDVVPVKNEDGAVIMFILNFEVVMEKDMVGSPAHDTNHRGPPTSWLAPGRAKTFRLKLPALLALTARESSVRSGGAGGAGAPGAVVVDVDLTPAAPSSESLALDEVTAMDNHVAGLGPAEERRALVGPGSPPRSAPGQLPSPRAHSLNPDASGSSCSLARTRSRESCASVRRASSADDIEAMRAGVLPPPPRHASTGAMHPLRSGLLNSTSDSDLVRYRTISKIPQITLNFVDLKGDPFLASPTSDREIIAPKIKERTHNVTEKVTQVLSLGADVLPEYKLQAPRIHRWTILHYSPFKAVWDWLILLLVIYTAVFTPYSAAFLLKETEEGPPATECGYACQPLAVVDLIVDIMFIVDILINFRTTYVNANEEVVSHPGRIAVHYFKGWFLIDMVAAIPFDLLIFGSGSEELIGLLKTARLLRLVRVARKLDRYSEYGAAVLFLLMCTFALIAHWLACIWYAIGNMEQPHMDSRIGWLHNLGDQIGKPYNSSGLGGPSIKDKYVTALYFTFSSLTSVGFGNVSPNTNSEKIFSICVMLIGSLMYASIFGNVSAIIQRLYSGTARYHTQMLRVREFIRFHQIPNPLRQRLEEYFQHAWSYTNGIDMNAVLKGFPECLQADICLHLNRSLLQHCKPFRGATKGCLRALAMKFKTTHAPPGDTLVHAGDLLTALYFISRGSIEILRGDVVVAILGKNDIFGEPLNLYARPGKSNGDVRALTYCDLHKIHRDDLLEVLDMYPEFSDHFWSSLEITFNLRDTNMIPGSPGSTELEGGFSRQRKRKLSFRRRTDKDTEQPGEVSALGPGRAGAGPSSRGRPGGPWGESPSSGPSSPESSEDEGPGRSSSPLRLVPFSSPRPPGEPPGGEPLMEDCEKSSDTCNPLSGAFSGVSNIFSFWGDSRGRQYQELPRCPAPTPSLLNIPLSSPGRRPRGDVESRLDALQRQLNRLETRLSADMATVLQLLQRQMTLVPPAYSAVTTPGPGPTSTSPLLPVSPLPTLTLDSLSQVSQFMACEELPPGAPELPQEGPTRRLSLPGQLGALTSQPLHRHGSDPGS
T4 sequence (Q12809 whole entry): as above
T1 sequence (Q06187 whole entry): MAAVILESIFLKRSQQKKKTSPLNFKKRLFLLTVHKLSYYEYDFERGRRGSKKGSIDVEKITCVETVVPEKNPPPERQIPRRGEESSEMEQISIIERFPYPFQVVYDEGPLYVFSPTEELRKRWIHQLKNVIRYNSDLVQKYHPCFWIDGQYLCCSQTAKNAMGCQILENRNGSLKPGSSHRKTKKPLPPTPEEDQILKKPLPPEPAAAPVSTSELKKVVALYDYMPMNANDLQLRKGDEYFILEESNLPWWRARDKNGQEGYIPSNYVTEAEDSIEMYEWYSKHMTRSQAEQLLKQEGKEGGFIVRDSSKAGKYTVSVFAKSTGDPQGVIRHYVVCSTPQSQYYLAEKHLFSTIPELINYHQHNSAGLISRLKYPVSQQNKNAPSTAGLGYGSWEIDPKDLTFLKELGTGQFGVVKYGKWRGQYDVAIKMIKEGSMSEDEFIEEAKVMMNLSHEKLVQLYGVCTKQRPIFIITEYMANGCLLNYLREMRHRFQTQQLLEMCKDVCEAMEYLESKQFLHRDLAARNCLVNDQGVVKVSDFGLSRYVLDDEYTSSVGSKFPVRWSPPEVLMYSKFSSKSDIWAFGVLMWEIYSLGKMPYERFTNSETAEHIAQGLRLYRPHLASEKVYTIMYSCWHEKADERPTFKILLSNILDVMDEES

As to `NC(=O)[C@H]1CCN(c2ncnc(N)c2F)C[C@@H]1N1CCC[C@@H](Nc2cc(Cl)cc(C(F)(F)F)c2)C1=O` [Compound I-1, (3R,3′R,4′S)-1′-(6-amino-5-fluoropyrimidin-4-yl)-3-((3-chloro-5-(trifluoromethyl)phenyl)amino)-2-oxo-[1,3′-bipiperidine]-4′-carboxamide], the IC50 at BTK is 0.73 nM; in data set [1] it was 15.6 µM. Further, the “PXR % induction (relative to 10 uM rifampin)” value on human PXR was found to be 62%.
In the same order, the values of `NC(=O)[C@H]1CCN(c2ncnc(N)c2F)C[C@@H]1N1CCC[C@@H](Nc2cc(F)cc(Cl)c2)C1=O` [Compound I-2] are 0.68 nM, 30 µM and 42%.
In the same order, the values of `CN(C)C(=O)[C@H]1CCN(c2ncnc(N)c2F)C[C@@H]1N1CCC[C@@H](Nc2cc(Cl)cc(C(F)(F)F)c2)C1=O` [Compound I-3, (3R,3′R,4′S)-1′-(6-amino-5-fluoropyrimidin-4-yl)-3-((3-chloro-5-(trifluoromethyl)phenyl)amino)-N,N-dimethyl-2-oxo-[1,3′-bipiperidine]-4′-carboxamide] are 2.07 nM, 14.6 µM and 47%.
In the same order, the values of `CNC(=O)[C@H]1CCN(c2ncnc(N)c2F)C[C@@H]1N1CCC[C@@H](Nc2cc(Cl)cc(C(F)(F)F)c2)C1=O` [Compound I-4] are 0.63 nM, 13.7 µM and 67%.
In the case of `NC(=O)[C@H]1CCN(c2ncnc(N)c2F)C[C@@H]1N1CCC[C@@H](Nc2cc(F)cc(C(F)(F)F)c2)C1=O` [Compound I-5, (3R,3′R,4′S)-1′-(6-amino-5-fluoropyrimidin-4-yl)-3-((3-fluoro-5-(trifluoromethyl)phenyl)amino)-2-oxo-[1,3′-bipiperidine]-4′-carboxamide], the concentration for half-maximal inhibition (IC50) at BTK came out at 1.6 nM. Further, the “observable activity in the hERG assay at 10 uM” value in data set [1] (10 uM, no IC50 available) is on record as “no observable activity”. The “PXR % induction (relative to 10 uM rifampin)” value at human PXR was determined as 90%.
Regarding `NC(=O)[C@H]1CCN(c2ncnc(N)c2F)C[C@@H]1N1CCC[C@@H](Nc2cc(Cl)cc(OC(F)(F)F)c2)C1=O` [Compound I-6], the IC50 at BTK was less than 1 nM. The molecule further had an inhibition at 3 min, 10 µM against hERG potassium channel of less than 20%.
For `CN1CCN(C(=O)[C@H]2CCN(c3ncnc(N)c3F)C[C@@H]2N2CCC[C@@H](Nc3cc(Cl)cc(C(F)(F)F)c3)C2=O)CC1` [Compound I-7], in that order: 1.2 nM and 65%.
As to `Nc1ncnc(N2CCC[C@@H](N3CCC[C@@H](Nc4cc(Cl)cc(C(F)(F)F)c4)C3=O)C2)c1F` [I^C, reference compound], the IC50 at BTK was 2 nM; in data set [1], 1.18 µM. On hERG potassium channel, this molecule yielded an inhibition at 3 min, 10 µM of 87%. Further, on human PXR, the “PXR % induction (relative to 10 uM rifampin)” value was 95%.

As a reminder, the IC50 is the concentration that inhibits the measured activity by half. What is called inhibition is the drop in the measured response relative to a control, in per cent. High values mean a strong effect, low ones a weak effect.
